Drawing on ChEMBL document CHEMBL3045935, “Benzoxepin derivatives: design, synthesis, and pharmacological evaluation with sedativehypnotic effect” (2012), this text covers Time for 16 compounds.

The subject of test [1] is Mus musculus. Nature of the test: Sedative-hypnotic activity in Mus musculus (mouse) assessed as increase in duration of phenobarbital-induced sleep at 19.6 to 42.6 mg/kg, ip incubated for 30 min prior to phenobarbital challenge relative to phenobarbital-treated mouse. The class given is functional. Conditions: dose mg/kg 19.6-42.6; route intraperitoneal.
The subject of test [2] is Mus musculus. In words: Sedative-hypnotic activity in Mus musculus (mouse) assessed as decrease in onset of phenobarbital-induced sleep at 19.6 to 42.6 mg/kg, ip incubated for 30 min prior to phenobarbital challenge relative to phenobarbital-treated mouse. The class given is functional. Conditions: dose mg/kg 19.6-42.6; route intraperitoneal.

In the case of `COc1ccc(N2N=C3c4cc(Cl)ccc4OCCC3CC2=O)cc1` (configuration not stated), the figures for the Time in the test with Mus musculus [1] and with Mus musculus [2] were 38.45 min and 42.5 min, respectively.

As to `O=C1/C(=C\c2ccc(F)cc2)CCOc2ccc(Cl)cc21`, the Time with Mus musculus [1] worked out at 103.15 min; with Mus musculus [2], 16.5 min.

As to `O=C1/C(=C\c2ccccc2)CCOc2ccc(Cl)cc21`, the Time in the test with Mus musculus [1] was 84.3 min; with Mus musculus [2], 18 min.

As for `O=C1CC2CCOc3ccc(Cl)cc3C2=NN1c1ccc(Cl)cc1` (configuration not stated), the figures for the Time in the test with Mus musculus [1] and with Mus musculus [2] were 42.15 min and 49.5 min, respectively.

`O=C1CCCOc2ccc(Cl)cc21`: the values for the Time with Mus musculus [1] and in the test on Mus musculus [2] were 59.5 min and 34.5 min, respectively.

Regarding `O=C1c2cc(Cl)ccc2OCCC1CN1CCN(c2ccccc2Cl)CC1` (configuration not stated), the Time was determined as 45.25 min in the test on Mus musculus [1] and 45.5 min with Mus musculus [2].

For `CCC1(c2ccccc2)C(=O)NC(=O)NC1=O` [PHENOBARBITAL], the Time worked out at 100.5 min with Mus musculus [1] and 46.8 min in the test on Mus musculus [2].

On to `O=C1/C(=C\c2ccc(Cl)cc2)CCOc2ccc(Cl)cc21`, for which the Time in the test on Mus musculus [1] worked out at 105.5 min; with Mus musculus [2], 15 min.

As for `O=C1c2cc(Cl)ccc2OCCC1Br` (configuration not stated), the Time with Mus musculus [1] was found to be 39.15 min; in the test with Mus musculus [2], 47 min.

`COc1ccc(/C=C2/CCOc3ccc(Cl)cc3C2=O)cc1`: the figures for the Time in the test with Mus musculus [1] and in the test on Mus musculus [2] were 79.4 min and 17.6 min, respectively.

With `O=C1CC2CCOc3ccc(Cl)cc3C2=NN1c1ccccc1` (configuration not stated), the Time with Mus musculus [1] is given as 100.15 min; in the test with Mus musculus [2], 20 min.

As to `CN(C)CC1CCOc2ccc(Cl)cc2C1=O` (configuration not stated), the Time with Mus musculus [1] is 61.3 min; in the test on Mus musculus [2], 34 min.

`CCC1(c2ccccc2)C(=O)NC(=O)N(C2CCOc3ccc(Cl)cc3C2=O)C1=O` (configuration not stated): the Time in the test with Mus musculus [1] is reported as 123.25 min; with Mus musculus [2], 21.5 min.

`CN1CCN(CC2CCOc3ccc(Cl)cc3C2=O)CC1` (configuration not stated): the Time in the test with Mus musculus [1] turned out to be 92.35 min; in the test with Mus musculus [2], 38.8 min.

Turning to `O=C1c2cc(Cl)ccc2OCCC1CN1CCOCC1` (configuration not stated), the Time is 75.25 min in the test on Mus musculus [1] and 40.8 min in the test with Mus musculus [2].

Regarding `O=C1c2cc(Cl)ccc2OCCC1CN1CCCCC1` (configuration not stated), the values for the Time in the test with Mus musculus [1] and with Mus musculus [2] were 99.3 min and 24.5 min, respectively.
